Data set [1] in a line: Molar enthalpy of transition or fusion. The note with it: Crystal; DSC.
For data set [2] the following is noted: Crystal; DTA.

Several values for one entry are separate records, joined by “and”; a condition that tells them apart may be missing. Equal values may be shown once. Numbers after ± are expanded uncertainties.

`CCCCn1cc[n+](C)c1.[Cl-]` [1-butyl-3-methylimidazolium chloride]: the “Molar enthalpy of transition or fusion” value in data set [1] was 6.1 kcal/mol and 6.02 kcal/mol. For the same compound, in data set [2], the Normal melting temperature is 69.80 ± 0.5 °C.
`CCn1cc[n+](C)c1.[Cl-]` [1-ethyl-3-methylimidazolium chloride]: the “Molar enthalpy of transition or fusion” value in data set [1] amounted to 3.67 ± 0.127 kcal/mol. The Normal melting temperature in data set [2] turned out to be 88.60 ± 0.5 °C.

Values taken from the NIST ThermoML archive (doi:10.1016/j.fluid.2012.11.007).
